Measurements as given in ChEMBL document CHEMBL5241054, “Effective anti-aromatase therapy to battle against estrogen-mediated breast cancer: Comparative SAR/QSAR assessment on steroidal aromatase inhibitors” (Eur J Med Chem, 2020).

Biological target: T1, Aromatase (Homo sapiens, UniProt P11511)
T1 sequence (P11511 whole entry): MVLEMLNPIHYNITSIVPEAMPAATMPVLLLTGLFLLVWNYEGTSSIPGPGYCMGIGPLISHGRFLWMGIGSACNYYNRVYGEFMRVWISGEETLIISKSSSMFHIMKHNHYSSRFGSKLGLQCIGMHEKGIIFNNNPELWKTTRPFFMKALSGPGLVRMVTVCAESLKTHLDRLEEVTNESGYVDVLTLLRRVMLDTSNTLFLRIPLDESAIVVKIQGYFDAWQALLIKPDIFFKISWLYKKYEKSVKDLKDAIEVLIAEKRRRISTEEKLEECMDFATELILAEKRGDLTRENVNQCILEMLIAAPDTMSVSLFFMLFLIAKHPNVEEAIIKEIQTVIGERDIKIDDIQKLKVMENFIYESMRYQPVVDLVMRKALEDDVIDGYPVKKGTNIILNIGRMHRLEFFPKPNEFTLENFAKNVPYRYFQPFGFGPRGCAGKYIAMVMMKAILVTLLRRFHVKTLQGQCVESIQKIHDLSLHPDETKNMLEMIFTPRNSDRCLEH

Compound	IC50 [nM]
C[C@]12CC[C@H]3[C@@H](CCC4=CCCC[C@@]43CO)[C@@H]1CCC2O (some centres undefined)	2300
C[C@]12CCC(=O)C=C1C(c1ccccc1)=C[C@@H]1[C@@H]2CC[C@]2(C)C(=O)CC[C@@H]12	200
CC[C@H]1C[C@@H]2[C@H](CC[C@]3(C)C(O)CC[C@@H]23)[C@@]2(C)CCCC=C12 (some centres undefined)	130
C[C@]12CC[C@H]3[C@@H](CCC4=CC(=O)CC[C@@]43CCl)[C@@H]1CCC2=O	1400
C[C@]12CCC(=O)C=C1[C@@H](Cc1ccccc1)C[C@@H]1[C@@H]2CC[C@]2(C)C(=O)CC[C@@H]12	661
C[C@]12CC[C@H]3[C@@H](CCC4=CC(=O)CC[C@@]43CC#N)[C@@H]1CCC2=O	2600
C[C@]12CC[C@H]3[C@@H](CCC4=CC(=O)CC[C@@]43CCF)[C@@H]1CCC2=O	700
C[C@]12CC[C@@H]3c4cc(N)c(O)cc4CC[C@H]3[C@@H]1CCC2=O	31000
C[C@]12CCC(=O)C=C1C(N=[N+]=[N-])=C[C@@H]1[C@@H]2CC[C@]2(C)C(=O)CC[C@@H]12	4550
CCCC1=C[C@@H]2[C@H](CC[C@]3(C)C(=O)CC[C@@H]23)[C@@]2(C)CCC(=O)C=C12	315
C[C@]12CCC(=O)C=C1C[C@@H](SCCc1ccccc1)[C@@H]1[C@@H]2CC[C@]2(C)C(=O)CC[C@@H]12	61.9
C[C@]12CC[C@H]3[C@@H](C=CC4=CC(=O)C=C[C@@]43CBr)[C@@H]1CCC2=O	2100
C[C@]12C=CC(=O)C=C1C=C[C@@H]1[C@@H]2CC[C@]2(C)C(=O)CC[C@@H]12	450
C[C@]12CC[C@@H]3c4cc(NC(=O)c5cccnc5)c(O)cc4CC[C@H]3[C@@H]1CCC2=O	75300
C[C@]12CCC(=O)C=C1C(CCCCc1ccccc1)=C[C@@H]1[C@@H]2CC[C@]2(C)C(=O)CC[C@@H]12	280
C[C@H]1C[C@@H]2[C@H](CC[C@]3(C)[C@@H](O)CC[C@@H]23)c2ccc(O)cc21	19000
C[C@]12C=C(CCCCc3ccccc3)C(=O)C=C1CC[C@@H]1[C@@H]2CC[C@]2(C)C(=O)CC[C@@H]12	34200
C[C@]12CCC(=O)C=C1[C@@H]1[C@H]([C@@H]3[C@@H]2CC[C@]2(C)C(=O)CC[C@@H]32)C1(F)F	1150
C[C@]12CCC3[C@@H](CC(=O)[C@]45O[C@H]4CCC[C@]35C=O)C1CCC2=O (some centres undefined)	150000
C[C@H]1C[C@@H]2[C@H](CC[C@]3(C)C(=O)CC[C@@H]23)[C@@]2(C)CCC(=O)C=C12	350
C[C@]12CC[C@H]3[C@@H](CCC4=CC(=O)CC[C@@]43CC(F)F)[C@@H]1CCC2=O	4000
C[C@]12CCC=CC1=CC(=O)[C@@H]1[C@@H]2CC[C@]2(C)C(O)CC[C@@H]12 (some centres undefined)	42000
CCCC1=C[C@@H]2[C@H](CC[C@]3(C)C(=O)CC[C@@H]23)[C@@]2(C)C=CC(=O)C=C12	100

Compound	IC50 [nM]
CC(=O)O[C@H]1CCC[C@@]2(C)C1=CC(=O)[C@@H]1[C@@H]2CC[C@]2(C)C(=O)CC[C@@H]12	95100
C[C@]12CC[C@@H]3c4ccc(O)c(F)c4CC[C@H]3[C@@H]1CC[C@@H]2O	87900
C[C@]12C=CC(=O)C=C1C[C@@H](CCCc1ccc(N)cc1)[C@@H]1[C@@H]2CC[C@]2(C)C(=O)CC[C@@H]12	158
C[C@]12CC[C@H]3[C@@H](C[C@H]4O[C@]45C(=O)CCC[C@]35C)C1CCC2=O (some centres undefined)	12500
CCOC1=C[C@@]2(C)C(=CC1=O)CC[C@@H]1[C@@H]2CC[C@]2(C)C(=O)CC[C@@H]12	17600
CCCCCCC1=C[C@@H]2[C@H](CC[C@]3(C)C(=O)CC[C@@H]23)[C@@]2(C)CCC(=O)C=C12	200
CC[C@]12CCC(=O)C=C1C(=O)C[C@@H]1[C@@H]2CC[C@]2(C)C(=O)CC[C@@H]12	2200
C[C@]12CC[C@H]3[C@@H](CCC4=CC(=O)CC[C@@]43C)[C@@H]1CC[C@@H]2OC(=O)CBr	50000
C[C@]12CC[C@@H]3c4ccc(O)cc4[C@@H](c4ccccc4)C[C@H]3[C@@H]1CC[C@@H]2O	129000
C[C@]12CCC(=O)C=C1CC[C@@H]1[C@@H]2CC[C@]2(C)C(=O)CC[C@@H]12 [ANDROSTENEDIONE]	1000
CCOC1=C2C(=O)C[C@@H]3[C@H](CC[C@]4(C)C(=O)CC[C@@H]34)[C@@]2(C)CCC1=O	4500
C[C@]12CC[C@H]3[C@@H](C[C@H]4O[C@]45C(=O)CCC[C@]35C=O)C1CCC2=O (some centres undefined)	210000
CCC[C@@H]1C[C@@H]2[C@H](CC[C@]3(C)C(=O)CC[C@@H]23)[C@@]2(C)CCC(=O)C=C12	240
CCC[C@H]1C[C@@H]2[C@H](CC[C@]3(C)C(=O)CC[C@@H]23)[C@@]2(C)CCC(=O)C=C12	390
CC[C@@H]1C[C@@H]2[C@H](CC[C@]3(C)C(=O)CC[C@@H]23)[C@@]2(C)C=CC(=O)C=C12	54
C[C@]12CC[C@H]3[C@@H](C=CC4=CC(=O)CC[C@@]43CCl)[C@@H]1CCC2=O	760
C[C@]12CCC(=O)c3nn(Cc4ccccc4)c(c31)C[C@@H]1[C@@H]2CC[C@]2(C)C(=O)CC[C@@H]12	245
C[C@]12CCC(=O)C=C1C[C@@H](Cc1ccccc1)[C@@H]1[C@@H]2CC[C@]2(C)C(=O)CC[C@@H]12	328
C[C@]12CCC(=O)C=C1C1C([C@@H]3[C@@H]2CC[C@]2(C)C(=O)CC[C@@H]32)C1(F)F (some centres undefined)	889
C[C@]12CC[C@H]3[C@@H](CC=C4C(=O)CCC[C@@]43CO)[C@@H]1CCC2=O	22000
C[C@]12CC[C@@H]3c4ccc(O)cc4[C@H](CCCc4ccccc4)C[C@H]3[C@@H]1CCC2=O	30000
C[C@]12CCCC=C1C(=O)C[C@@H]1[C@@H]2CC[C@]2(C)C(=O)CC[C@@H]12	165
C[C@]12CCC(=O)C=C1CC[C@@H]1[C@@H]2CC[C@]2(C)C(=O)[C@H](O)C[C@@H]12	200000

Compound	IC50 [nM]
CCC[C@@H]1C[C@@H]2[C@H](CC[C@]3(C)C(=O)CC[C@@H]23)[C@@]2(C)C=CC(=O)C=C12	60
C[C@]12CCC=CC1=CC[C@@H]1[C@@H]2CC[C@]2(C)C(O)CC[C@@H]12 (some centres undefined)	18000
CC(=O)O[C@@H]1C[C@@H]2[C@H](CC[C@]3(C)C(=O)CC[C@@H]23)[C@@]2(C)CCCC=C12	120
COC1=C[C@@]2(C)C(=CC1=O)CC[C@@H]1[C@@H]2CC[C@]2(C)C(=O)CC[C@@H]12	1100
C[C@]12C[C@@H](Cc3ccccc3)C(=O)C=C1CC[C@@H]1[C@@H]2CC[C@]2(C)C(=O)CC[C@@H]12	466000
CCCCC1C[C@H]2[C@@H]3CC[C@H](O)[C@@]3(C)CC[C@@H]2[C@@]2(C)CCC(=O)C=C12 (some centres undefined)	48
C[C@]12CC[C@@H]3C4CCCCC4=CC(=O)[C@H]3[C@@H]1CCC2=O (some centres undefined)	28000
C[C@]12CCC(=O)C=C1[C@H](Br)C[C@@H]1[C@@H]2CC[C@]2(C)C(=O)CC[C@@H]12	800
C=CC[C@]12CCC(=O)C=C1CC[C@@H]1[C@@H]2CC[C@]2(C)C(=O)CC[C@@H]12	1800
C[C@]12C=CC(=O)C=C1C(CCc1ccccc1)=C[C@@H]1[C@@H]2CC[C@]2(C)C(=O)CC[C@@H]12	72.9
C[C@]12CC[C@@H]3c4ccc(O)cc4[C@H](c4ccccc4)C[C@H]3[C@@H]1CC[C@@H]2O	129000
C[C@]12CCC(=O)c3[nH]nc(c31)C[C@@H]1[C@@H]2CC[C@]2(C)C(=O)CC[C@@H]12	236
C[C@]12CC[C@H]3[C@@H](CCC4=CCCC[C@@]43CO)[C@@H]1C[C@@H](O)[C@@H]2O	971000
C[C@]12C=CC(=O)C=C1[C@H](CCCCc1ccccc1)C[C@@H]1[C@@H]2CC[C@]2(C)C(=O)CC[C@@H]12	470
C[C@]12CCCC(=O)C1CC[C@@H]1[C@@H]2CC[C@]2(C)C(=O)CC[C@@H]12 (some centres undefined)	2400
C[C@]12CCC(=O)C=C1[C@@H]1N[C@@H]1[C@@H]1[C@@H]2CC[C@]2(C)C(=O)CC[C@@H]12	49200
CC1(C)C[C@@]2(C)C(=C(O)C1=O)C(=O)C[C@@H]1[C@@H]2CC[C@]2(C)C(=O)CC[C@@H]12	440
C[C@]12C[C@@H](CCCCc3ccccc3)C(=O)C=C1CC[C@@H]1[C@@H]2CC[C@]2(C)C(=O)CC[C@@H]12	222000
C[C@]12CC[C@H]3[C@@H](C=CC4=CC(=O)C=C[C@@]43CCl)[C@@H]1CCC2=O	1330
C[C@]12C=C(CCCc3ccccc3)C(=O)C=C1CC[C@@H]1[C@@H]2CC[C@]2(C)C(=O)CC[C@@H]12	145
C[C@]12CC[C@H]3[C@@H](CCC4=CC(=O)CC[C@@]43CI)[C@@H]1CCC2=O	4100
C[C@]12CC[C@@H]3c4ccc(O)cc4CC[C@H]3[C@@H]1CCC2=O [ESTRONE]	26000
C[C@]12CCC(=O)C=C1C[C@@H](SCc1ccccc1)[C@@H]1[C@@H]2CC[C@]2(C)C(=O)CC[C@@H]12	69
